Reference: paper PMC5397059, “Design, synthesis and structure-activity relationship study of wollamide B; a new potential anti TB agent” (PLoS ONE, 2017)
Converted amounts (≈) assume the structure as drawn. “And” between values parts separate entries of the source, which are not always exact repeats. Equal entries are not always repeated. Where two headings read alike, the source gives them in different places. Non-standard residues stand in square brackets, D forms with d. Residues, ends and D or L forms follow the SMILES beside them. dOrn = NCCC[C@@H](N)C(=O)O

Key:
mycobacteria = system: mycobacteria; parameters: method as in PMID 25229313; details: cited from earlier work
[1] = Chemi-Luminescent Nitrogen Detection (CLND) kinetic solubility assay; assay type: physicochemical; details: phosphate buffered saline, pH 7.4
Method in brief: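 10 mM DMSO stock diluted 5 μL into 100 uL pH 7.4 phosphate buffered saline, equilibrated 1 h at room temperature, then filtered. Filtrate quantified by calibrated flow-injection CLND; standard error ±30 μM, upper limit 500 μM.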

[2] = Intrinsic clearance (CLint) assay, mouse liver microsomes; assay type: in vitro ADME; details: for CLint Mouse: mouse liver microsomes; for half-life at 0.5 µM: mouse, pooled mouse liver microsomes, pH 7.4; for CLpred Mouse: predicted metabolic clearance
Method in brief: (§1)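 Pooled liver microsomes (0.5 mg/mL protein) with test compound at 0.5 μM (0.5% DMSO), 5 mM MgCl2 and pH 7.4 phosphate buffer were run at 37°C; 1 mM NADPH started the reaction. Samples at 0-45 min were analysed by LC-MS/MS; t1/2 and CLint were derived from the ln peak-area-ratio slope.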

Mtb H37Rv = details: for MIC against Mtb H37Rv: duplicate, analogues
Chrom logD assay = assay type: physicochemical
Method in brief: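 Reversed-phase C18 HPLC with fast acetonitrile gradient starting from 100% pH 7.4 buffer; CHI from retention times via calibration standards. ChromlogD = 0.0857CHI − 2.00; assay error ±3 CHI or ±0.25 ChromlogD.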

human serum albumin [3] = target: T1, human serum albumin (Homo sapiens, UniProt P02768); experiment: Human serum albumin (HSA) binding assay; assay type: in vitro ADME; details: for % HSA: human serum albumin binding
Method in brief: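 Gradient retention times measured on an immobilized HSA HPLC column with UV detection. Retention times converted to HSA binding values by a linear calibration against reference compounds of known binding, run before each batch.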

[4] = Plasma stability assay, mouse plasma; assay type: in vitro ADME; details: for remaining at 2 h, 1 uM: CD1, mouse, plasma
Method: (§2) Plasma stability of the compounds was assessed in CD1 mouse and human plasma. Plasma was spiked with 1 μL of a 10 mM of each test compound solution to produce a 1 uM incubation. Three separate 300 μl aliquots were then taken from each tube and incubated at 37°C for 2 h. At each time point (0, 15, 30, 60 and 120 min), 50 μL of plasma were collected from each sample. Samples were extracted by protein precipitation with 250 μL of 0.1% AcOH acetonitrile methanol 3–1 (v/v) containing 1uM internal standard and centrifuged for 10min at 2800rpm. Supernatants were collected prior the injection onto an LC-MS/MS system. Analyte/Internal standard peak area ratios were referenced to the zero time-point samples as 100% in order to determine the percentage of compound remaining for each time-point. Ln plots of the % remaining for each compound were used to determine the half-life for the plasma incubations.

[5] = Artificial membrane permeability assay; assay type: in vitro ADME; details: PAMPA, pH 7.4
Method in brief: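 PAMPA using L-α-phosphatidylcholine in cholesterol decane as the membrane, with 50 mM phosphate buffer containing 0.5% encapsin at pH 7.4 on both sides. Compound added to donor; plates shaken 3 h at room temperature in duplicate. Donor and receiver concentrations measured by HPLC; permeability reported in nm/sec.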

[6] = Intrinsic clearance (CLint) assay, human liver microsomes; assay type: in vitro ADME; details: for CLint Human: human liver microsomes; for half-life at 0.5 µM: human, pooled human liver microsomes; for CLpred Human: predicted metabolic clearance
Method in brief: as §1

[7] = Plasma stability assay, human plasma; assay type: in vitro ADME; details: for remaining at 2 h, 1 uM: human, plasma
Method: as §2

human serum albumin [8] = target: T1, human serum albumin; experiment: HPLC retention on an immobilised HSA column; HSA immobilised on the column; gradient retention times of the compounds converted to % HSA binding by a calibration set of compounds of known HSA binding; UV detection
M. bovis = details: cited from earlier work
[9] = system: intracellular mycobacterial survival in murine bone marrow-derived macrophages; parameters: method as in PMID 25229313; details: cited from earlier work
[10] = kinetic aqueous solubility by CLND, read-out: Solubility
[11] = read-out: Microsomal t1/2 Mouse
[12] = 2 hours at 37°C, triplicates, read-out: Plasma stability (% remaining) Mouse
[13] = passive artificial membrane permeability, read-out: Permeability
[14] = pH 7.4, human liver microsomes, read-out: Microsomal t1/2 Human
[15] = 2 hours at 37°C, triplicates, read-out: Plasma stability (% remaining) Human

T1 sequence (P02768 25-609): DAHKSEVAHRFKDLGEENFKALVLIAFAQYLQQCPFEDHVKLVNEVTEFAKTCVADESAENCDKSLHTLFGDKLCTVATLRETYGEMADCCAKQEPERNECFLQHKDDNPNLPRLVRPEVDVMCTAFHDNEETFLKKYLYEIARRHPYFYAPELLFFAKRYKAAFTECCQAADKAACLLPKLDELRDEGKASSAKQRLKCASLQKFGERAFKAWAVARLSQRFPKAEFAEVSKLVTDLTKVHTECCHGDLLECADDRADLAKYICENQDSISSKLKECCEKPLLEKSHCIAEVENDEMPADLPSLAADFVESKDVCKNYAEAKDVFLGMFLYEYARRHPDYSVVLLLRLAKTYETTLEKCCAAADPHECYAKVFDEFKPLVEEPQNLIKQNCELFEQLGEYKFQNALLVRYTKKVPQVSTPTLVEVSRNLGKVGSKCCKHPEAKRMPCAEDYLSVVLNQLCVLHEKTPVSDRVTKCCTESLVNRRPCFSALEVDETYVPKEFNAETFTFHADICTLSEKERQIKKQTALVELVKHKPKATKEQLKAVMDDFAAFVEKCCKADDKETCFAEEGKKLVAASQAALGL

In the case of desotamide B, the “antimycobacterial activity” value (mycobacteria) is given as “no antimycobacterial activity”.

With `CC(C)C[C@@H]1NC(=O)[C@H](Cc2c[nH]c3ccccc23)NC(=O)[C@@H](CCCN)NC(=O)[C@H](C)NC(=O)[C@H](C(C)C)NC(=O)[C@@H](CC(C)C)NC1=O` [Compound 4c] (cyclo(A[dOrn]WL[dL]V)) the solubility kinetic at 1 h [1, 10] was 143 µg/mL (≈ 205 µM), the “% LBF Mouse” value ([2]; liver blood flow) was <16.27% and the “CLint Mouse” value [2] was <0.48 mL/min/g tissue. The half-life at 0.5 µM [2, 11] was > 139 min, the “CLpred Mouse” value [2] was <20.50 mL/min/kg and the “MIC against Mtb H37Rv” value (Mtb H37Rv) was 20 µM (≈ 13.9 µg/mL). The chromatographic logD (Chrom logD assay; pH 7.4, read-out: Log D) was 2, the “% HSA” value (human serum albumin [3]) was 83% and 82.76% and the remaining at 2 h, 1 uM [4, 12] was 100%. For the same compound, the Papp at 3 h [5, 13] was < 0.3 ×10⁻⁶ cm/s, the “CLint Human” value [6] was <0.40 mL/min/g tissue and the half-life at 0.5 µM [6, 14] was > 139 min. For the same compound, the “% LBF Human” value ([6]; liver blood flow) was <35.08%, the “CLpred Human” value [6] was 6.31 mL/min/kg and the remaining at 2 h, 1 uM [7, 15] was 95%.

For wollamide B (peptide), the % Human serum albumin binding (human serum albumin [8]) was 72.7%.

In the case of `CC(C)C[C@@H]1NC(=O)[C@H](Cc2c[nH]c3ccccc23)NC(=O)[C@@H](CCCN)NC(=O)[C@H](CC(N)=O)NC(=O)[C@H](C)NC(=O)[C@@H](CC(C)C)NC1=O` [Compound 5c] (cyclo(AN[dOrn]WL[dL])), the solubility kinetic at 1 h [1, 10] is reported as 129 µg/mL (≈ 181 µM), the “% LBF Mouse” value ([2]; liver blood flow) is reported as <16.27% and the “CLint Mouse” value [2] is reported as <0.48 mL/min/g tissue. For the same compound, the half-life at 0.5 µM [2, 11] was > 139 min, the “CLpred Mouse” value [2] was <20.50 mL/min/kg and the “MIC against Mtb H37Rv” value (Mtb H37Rv) was >80 µM. The chromatographic logD (Chrom logD assay; pH 7.4, read-out: Log D) was 1.32, the “% HSA” value (human serum albumin [3]) was 56.76% and the remaining at 2 h, 1 uM [4, 12] was 96%. The Papp at 3 h [5, 13] was < 1 ×10⁻⁶ cm/s, the “CLint Human” value [6] was <0.40 mL/min/g tissue and the half-life at 0.5 µM [6, 14] was > 139 min. For the same compound, the “% LBF Human” value ([6]; liver blood flow) was <35.08%, the “CLpred Human” value [6] was 6.31 mL/min/kg and the remaining at 2 h, 1 uM [7, 15] was 98%.

In the case of `CC(C)C[C@@H]1NC(=O)[C@@H](CC(C)C)NC(=O)[C@@H](CCCN)NC(=O)[C@H](CC(N)=O)NC(=O)[C@H](C(C)C)NC(=O)[C@H](Cc2c[nH]c3ccccc23)NC1=O` [Compound 21c] (cyclo(LWVN[dOrn][dL])), the solubility kinetic at 1 h [1, 10] is reported as ≥ 210 µg/mL, the “% LBF Mouse” value ([2]; liver blood flow) is reported as <16.83% and the “CLint Mouse” value [2] is reported as <0.50 mL/min/g tissue. The half-life at 0.5 µM [2, 11] was > 139 min, the “CLpred Mouse” value [2] was <21.21 mL/min/kg and the “MIC against Mtb H37Rv” value (Mtb H37Rv) was 20 µM (≈ 14.8 µg/mL). For the same compound, the chromatographic logD (Chrom logD assay; pH 7.4, read-out: Log D) was 1.89, the “% HSA” value (human serum albumin [3]) was 79.64% and the remaining at 2 h, 1 uM [4, 12] was 98%. The Papp at 3 h [5, 13] was < 0.3 ×10⁻⁶ cm/s, the “CLint Human” value [6] was <0.40 mL/min/g tissue and the half-life at 0.5 µM [6, 14] was > 139 min. The “% LBF Human” value ([6]; liver blood flow) was <35.25%, the “CLpred Human” value [6] was <6.35 mL/min/kg and the remaining at 2 h, 1 uM [7, 15] was 97%.

In the case of `CC(C)C[C@@H]1NC(=O)[C@H](Cc2c[nH]c3ccccc23)NC(=O)[C@@H](CCCN)NC(=O)[C@H](CC(N)=O)NC(=O)[C@H](C(C)C)NC(=O)[C@@H](CC(C)C)NC1=O` [Compound 1c, wollamide B] (cyclo([dOrn]WL[dL]VN)), the IC50 (M. bovis) is listed as 3.1 µM, the solubility kinetic at 1 h ([1]; kinetic aqueous solubility, Table 1, read-out: Solubility CLND) is listed as 151 µg/mL (≈ 204 µM) and the “Mouse CLint” value ([2]; Table 1) is listed as <0.50 mL/min/g. For the same compound, the “Mouse predicted % LBF” value ([2]; liver blood flow, Table 1) was <16.83%, the half-life at 0.5 µM ([2]; Table 1, read-out: Mouse microsomal half-life) was > 139 min and the “Mtb H37Rv MIC” value (Mtb H37Rv; Table 1) was 0.6 µM. For the same compound, the IC50 was 56 µM, the intracellular mycobacterial survival [9] was “reduce the intracellular mycobacterial survival” and the chromatographic logD (Chrom logD assay; pH 7.4, Table 1, read-out: Log D pH = 7.4) was 1.8. The “% Human serum albumin binding” value (human serum albumin [3]; Table 1) was 73% and 72.66%, the “Plasma stability (% remaining), Mouse plasma” value ([4]; 2 h at 37°C, Table 1) was “More than 90 % remaining” and the remaining at 2 h, 1 uM ([4]; 2 h at 37°C, Table 1, read-out: Plasma stability (% remaining), Mouse plasma) was 90%. The Papp at 3 h ([5]; Table 1, read-out: Artificial membrane permeability) was < 0.3 ×10⁻⁶ cm/s, the “Human CLint” value ([6]; Table 1) was 0.97 mL/min/g and the half-life at 0.5 µM ([6]; pH 7.4, Table 1, read-out: Human microsomal half-life) was 56.8 min. For the same compound, the “Human predicted % LBF” value ([6]; liver blood flow, Table 1) was 56.88%, the “% LBF given as a fraction (metabolic stability class)” value ([6]; predicted hepatic clearance, microsomal stability) was 1/2 and the “Plasma stability (% remaining), Human Plasma” value ([7]; 2 h at 37°C, Table 1) was “More than 90 % remaining”. It also gave a remaining at 2 h, 1 uM ([7]; 2 h at 37°C, Table 1, read-out: Plasma stability (% remaining), Human Plasma) of 100%.
